Test results reported in article PMC6212553, “Baicalein Enhances the Oral Bioavailability and Hepatoprotective Effects of Silybin Through the Inhibition of Efflux Transporters BCRP and MRP2” (Frontiers in Pharmacology, 2018).
Where two headings read alike, the source gives them in different places.

Assay: Pharmacokinetic study in rats after oral administration
Assay type: in vivo, SD rats
Conditions: silybin 50 mg/kg oral; for CL/F / MRT last / Tmax / half-life: male, SD, rat, plasma, po, 50 mg/kg; for CL/F: read-out: CLz/F, free silybin (converted); for MRT last: read-out: MRT(0-t), free silybin; for Tmax: read-out: Tmax, free silybin; for half-life: read-out: t1/2z, free silybin (converted)
Description: A previously established liquid chromatography-mass spectrometry (LC-MS) method with slight modifications was used to determine the concentrations of all glucuronide and sulfate conjugates of silybin and free silybin in bio-samples (plasma, cell and media) ([Wen et al., 2008]). In brief, a 10 μl aliquot of each sample was enzymatically hydrolyzed with […] (8000 U/ml) and sulfatase (80 U/ml), and the reaction was terminated by adding 40 μl ice-cold acetonitrile containing glacial acetic acid (1%) and internal standard NG (25 ng/ml). After centrifugation at 13,500 rpm for 15 min at 4°C, the supernatant was dried in ice bath by blowing nitrogen. Later, the residues were reconstituted with 60 μl of 30% methanol in water containing 1% ascorbic acid, and an aliquot of 10 μl of final solution after centrifugation was analyzed by LC-MS/MS. In parallel, a 10 μl aliquot of each sample without enzymes was treated with 40 μl ice-cold acetonitrile containing glacial acetic acid (1%) and NG (25 ng/ml) to determine the concentration of free silybin. Therefore, the concentration of total glucuronides and sulfates was estimated based on the difference between the amount of total silybin (after incubation with both glucuronidase and sulfatase) and free silybin (without enzymatic incubation). The method was validated in terms of specificity, recovery, linearity, sensitivity (LLOQ), matrix effect, accuracy, precision, and stability based on the USA Food and Drug Administration (FDA) bioanalytical method validation guidance. The quantitative linear range for silybin A and B was 5 to 12500 ng/ml.
The analysis for the determination of the concentration of silybin and its glucuronides and sulfates was performed on an Agilent HP 1100 LC-MS system (Agilent, CA, United States) with Waters ACQUITY UPLC® BEH C18 Column (1.7 μm, 2.1 × 50 mm, Waters Corp., Ireland) protected by a C18 Security Guard cartridge (4 × 2.0 mm i.d., Phenomenex, Torrance, CA, United States). Silybin A and B were well separated using optimized gradient elution with 0.1% formic acid in water (mobile phase A) and methanol (mobile phase B) at a flow rate of 0.4 ml/min within 10 min at room temperature (22°C). The gradient elution was performed as follows (time: mobile phase B percentage): 0 min: 25%, 6 min: 40%, 6.5 min: 25%.
Mass spectrometry parameters: capillary voltage, -4000 V; drying gas, 9 L/min; drying gas temperature, 325°C; nebulizer pressure, 40 psi; fragment voltage, 35 V; dwell time, 200 ms; scan mode, selective ion monitoring (SIM) with [M-H]^- for silybin (m/z 481), mono-glucuronide (m/z 657), and NG (m/z 271). The LC-MS data were collected by Agilent ChemStation Software.
Male SD rats, weighting 200–250 g, were purchased from the Guangdong Medical Laboratory Animal Center. They were housed as six rats per cage and in a temperature- (21°C) and humidity-controlled (70%) room with a 12 h light/dark cycle with standard diet and water. All animals were allowed to acclimate to the housing conditions for 7 days prior to experimentation. Experimental procedures were approved by the Committee of Guangdong Provincial Hospital of Traditional Chinese Medicine (No # 2017044).
The SD rats were randomly divided into three groups with six rats per group and were given oral administration as follows: (1) silybin at a dosage of 50 mg/kg bodyweight, (2) silybin and baicalein at a dosage of 50 mg/kg each, and (3) baicalein at a dosage of 50 mg/kg body weight. Before the experiment, rats were pre-fasted for 24 h with water ad libitum and were maintained at a temperature of 21°C with 70% relative humidity and a 12 h light/dark cycle. Blood samples were collected via the tail vein (about 0.1 ml) at time intervals of 0, 15, 30, 45, 60, 90, 120, 240, 360, 480, and 720 min after oral administration with a temporary cannula ([Parasuraman et al., 2010]), and the samples were transferred into heparinized micro-centrifuge tubes. […]

[1] = with baicalein 50 mg/kg, listed as SBB
[2] = with baicalein 50 mg/kg, listed as SBA
[3] = without baicalein, listed as SBA

Row | Structure (SMILES) | CL/F (with baicalein 50 mg/kg) [mL/min/kg] | MRT last (with baicalein 50 mg/kg) [h] | Tmax (with baicalein 50 mg/kg) [h] | half-life (with baicalein 50 mg/kg) [h] | CL/F (without baicalein) [mL/min/kg] | MRT last (without baicalein) [h] | Tmax (without baicalein) [h] | half-life (without baicalein) [h] | AUC(0-∞), free silybin (with baicalein 50 mg/kg) [ng ⋅ h/ml] | AUC(0-∞), free silybin (without baicalein) [ng ⋅ h/ml] | further results
1 | COc1cc([C@@H]2Oc3cc([C@H]4Oc5cc(O)cc(O)c5C(=O)[C@@H]4O)ccc3O[C@H]2CO)ccc1O [silybin B] | 298 | 2.1 ± 0.3 | 1.29 ± 0.51 | 1.34 ± 0.53 | 450 | 4.21 ± 0.98 | 1.5 | 1.7 ± 0.3 | 1812 ± 223 | 2087 ± 932 | AUC(0-t), free silybin [1]: 1808 ± 226 ng ⋅ h/ml; Cmax, free silybin [1]: 915.2 ± 151 ng/mL; AUC(0-t), free silybin (without baicalein): 1195 ± 302 ng ⋅ h/ml; Cmax, free silybin (without baicalein): 413 ± 69 ng/mL; Cmax, free silybin (without baicalein, listed as SBB): 412.7 ± 69.3 ng/mL
2 | COc1cc([C@H]2Oc3cc([C@H]4Oc5cc(O)cc(O)c5C(=O)[C@@H]4O)ccc3O[C@@H]2CO)ccc1O [silybin A] | 233 | 1.9 ± 0.2 | 1.5 | 1.6 ± 2.3 | 417 | 4.1 ± 0.9 | 1.5 | 1.5 ± 0.2 | 3599 ± 410 | 2305 ± 1147 | AUC(0-t), free silybin (with baicalein 50 mg/kg): 3534 ± 344 ng ⋅ h/ml; Cmax, free silybin (with baicalein 50 mg/kg): 1526 ± 126 ng/mL; AUC(0-t), free silybin [2]: 3534 ± 344 ng ⋅ h/ml; Cmax, free silybin [2]: 1526 ± 126 ng/mL; AUC(0-t), free silybin [3]: 1292 ± 342 ng ⋅ h/ml; Cmax, free silybin [3]: 507.7 ± 115 ng/mL
